# Source: ChEMBL document CHEMBL1909046, “DrugMatrix in vitro pharmacology data”
# Key:
# [1] = target: T1, Type-2 angiotensin II receptor (Homo sapiens, UniProt P50052); type: cell-based; conditions: cho-k1; also: in other assays of this panel Not Active means under 50% inhibition at 10 µM
# T1 sequence (P50052 whole entry): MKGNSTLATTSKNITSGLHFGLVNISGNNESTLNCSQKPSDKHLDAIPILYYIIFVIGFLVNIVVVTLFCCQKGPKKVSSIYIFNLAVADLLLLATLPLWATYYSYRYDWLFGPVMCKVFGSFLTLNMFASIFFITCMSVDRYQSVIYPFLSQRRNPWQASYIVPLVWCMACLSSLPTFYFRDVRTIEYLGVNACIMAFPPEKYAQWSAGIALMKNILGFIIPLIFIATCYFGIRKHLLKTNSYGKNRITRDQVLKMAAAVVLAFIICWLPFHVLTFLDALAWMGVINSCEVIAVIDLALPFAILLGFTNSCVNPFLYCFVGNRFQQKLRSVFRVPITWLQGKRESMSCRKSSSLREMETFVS
# [2] = target: Sigma non-opioid intracellular receptor 1 (Homo sapiens, UniProt Q99720); test: DRUGMATRIX: Sigma1 radioligand binding (ligand: [3H] Haloperidol); type: cell membranes, Jurkat, Membrane; conditions: Not Active = under 50% inhibition at 10 µM
# Sequence of Sigma non-opioid intracellular receptor 1 (Q99720 whole entry): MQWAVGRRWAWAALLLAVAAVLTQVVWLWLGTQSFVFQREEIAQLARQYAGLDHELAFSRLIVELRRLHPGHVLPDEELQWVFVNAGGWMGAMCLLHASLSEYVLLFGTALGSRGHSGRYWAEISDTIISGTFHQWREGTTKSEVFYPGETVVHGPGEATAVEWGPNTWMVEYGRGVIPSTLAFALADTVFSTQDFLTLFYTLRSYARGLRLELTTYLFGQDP
# [3] = target: T2, Polyunsaturated fatty acid lipoxygenase ALOX15 (Oryctolagus cuniculus, UniProt P12530); test: biochemical; type: tissue-based, Reticulocytes; conditions: reticulocytes;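 also: inhibition of 15-lipoxygenase enzyme activity measured with linoleic acid as the substrate; in other assays of this panel Not Active means under 50% inhibition at 10 µM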
# T2 sequence (P12530 whole entry): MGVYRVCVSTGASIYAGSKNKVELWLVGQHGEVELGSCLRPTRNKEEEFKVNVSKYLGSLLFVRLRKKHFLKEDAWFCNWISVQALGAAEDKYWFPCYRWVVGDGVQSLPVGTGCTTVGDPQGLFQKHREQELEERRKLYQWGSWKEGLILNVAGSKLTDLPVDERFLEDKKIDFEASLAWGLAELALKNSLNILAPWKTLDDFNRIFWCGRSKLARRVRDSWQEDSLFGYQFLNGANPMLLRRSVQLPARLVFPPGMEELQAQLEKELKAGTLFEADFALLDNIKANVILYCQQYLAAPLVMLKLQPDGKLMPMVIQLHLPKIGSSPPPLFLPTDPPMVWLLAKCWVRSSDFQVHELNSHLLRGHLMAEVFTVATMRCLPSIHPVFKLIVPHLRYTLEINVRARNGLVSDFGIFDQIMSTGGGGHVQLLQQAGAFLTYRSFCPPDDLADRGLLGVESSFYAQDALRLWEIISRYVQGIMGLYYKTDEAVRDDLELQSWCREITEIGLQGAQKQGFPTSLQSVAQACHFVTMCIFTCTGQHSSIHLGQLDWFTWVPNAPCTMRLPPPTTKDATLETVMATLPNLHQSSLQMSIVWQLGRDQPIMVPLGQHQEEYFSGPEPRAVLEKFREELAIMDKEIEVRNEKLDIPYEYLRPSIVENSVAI
# [4] = target: Melanocortin receptor 5 (Homo sapiens, UniProt P33032); type: cell membranes, HEK293, Membrane; conditions: hek293; also: in other assays of this panel Not Active means under 50% inhibition at 10 µM
# Sequence of Melanocortin receptor 5 (P33032 whole entry): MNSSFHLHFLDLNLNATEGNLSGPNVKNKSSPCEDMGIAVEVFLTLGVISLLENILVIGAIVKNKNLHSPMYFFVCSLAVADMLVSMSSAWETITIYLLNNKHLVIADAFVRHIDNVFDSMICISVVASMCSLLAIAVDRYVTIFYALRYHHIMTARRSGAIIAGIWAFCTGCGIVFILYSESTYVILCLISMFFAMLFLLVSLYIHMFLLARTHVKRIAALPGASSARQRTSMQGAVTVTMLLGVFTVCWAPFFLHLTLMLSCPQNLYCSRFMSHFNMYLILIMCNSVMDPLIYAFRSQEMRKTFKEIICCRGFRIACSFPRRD
# [5] = target: T3, Muscarinic acetylcholine receptor M4 (Homo sapiens, UniProt P08173); type: cell membranes, CHO-K1, Membrane; conditions: cho-k1; also: in other assays of this panel Not Active means under 50% inhibition at 10 µM
# T3 sequence (P08173 whole entry): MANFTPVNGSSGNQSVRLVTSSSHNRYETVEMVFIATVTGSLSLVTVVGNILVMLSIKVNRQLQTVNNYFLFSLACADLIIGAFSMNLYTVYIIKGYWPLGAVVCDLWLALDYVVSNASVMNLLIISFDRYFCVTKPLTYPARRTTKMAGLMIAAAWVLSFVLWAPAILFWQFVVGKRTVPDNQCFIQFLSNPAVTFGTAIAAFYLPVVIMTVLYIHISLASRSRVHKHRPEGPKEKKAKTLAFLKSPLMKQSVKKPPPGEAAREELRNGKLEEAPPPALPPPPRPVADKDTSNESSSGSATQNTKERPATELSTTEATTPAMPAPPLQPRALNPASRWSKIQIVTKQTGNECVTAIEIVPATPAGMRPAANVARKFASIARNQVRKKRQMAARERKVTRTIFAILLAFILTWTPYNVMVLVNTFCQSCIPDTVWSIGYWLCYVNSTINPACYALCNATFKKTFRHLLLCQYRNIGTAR
# [6] = target: Matrix metalloproteinase-9 (Homo sapiens, UniProt P14780); test: biochemical; type: cell-based
# Sequence of Matrix metalloproteinase-9 (P14780 whole entry): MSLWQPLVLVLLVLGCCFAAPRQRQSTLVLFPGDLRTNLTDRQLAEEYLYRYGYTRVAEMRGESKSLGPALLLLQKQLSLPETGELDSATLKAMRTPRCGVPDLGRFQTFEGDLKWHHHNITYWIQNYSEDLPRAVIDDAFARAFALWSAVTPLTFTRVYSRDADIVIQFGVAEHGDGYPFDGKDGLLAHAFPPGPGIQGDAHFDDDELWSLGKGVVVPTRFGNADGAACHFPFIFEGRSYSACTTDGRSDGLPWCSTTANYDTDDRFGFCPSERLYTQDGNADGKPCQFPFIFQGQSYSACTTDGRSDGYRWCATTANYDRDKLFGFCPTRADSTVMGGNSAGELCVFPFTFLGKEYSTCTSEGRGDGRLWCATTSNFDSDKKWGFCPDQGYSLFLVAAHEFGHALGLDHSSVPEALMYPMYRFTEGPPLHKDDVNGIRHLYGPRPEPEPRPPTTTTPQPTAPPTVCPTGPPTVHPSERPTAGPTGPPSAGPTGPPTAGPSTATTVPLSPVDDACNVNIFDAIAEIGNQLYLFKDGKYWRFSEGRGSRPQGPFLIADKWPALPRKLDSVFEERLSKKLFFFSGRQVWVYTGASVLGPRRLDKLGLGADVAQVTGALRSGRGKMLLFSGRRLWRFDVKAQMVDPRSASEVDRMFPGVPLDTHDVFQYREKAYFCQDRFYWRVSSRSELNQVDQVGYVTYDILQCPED
# [7] = target: Estrogen receptor beta (Homo sapiens, UniProt Q92731); conditions: sf9; also: in other assays of this panel Not Active means under 50% inhibition at 10 µM
# Sequence of Estrogen receptor beta (Q92731 whole entry): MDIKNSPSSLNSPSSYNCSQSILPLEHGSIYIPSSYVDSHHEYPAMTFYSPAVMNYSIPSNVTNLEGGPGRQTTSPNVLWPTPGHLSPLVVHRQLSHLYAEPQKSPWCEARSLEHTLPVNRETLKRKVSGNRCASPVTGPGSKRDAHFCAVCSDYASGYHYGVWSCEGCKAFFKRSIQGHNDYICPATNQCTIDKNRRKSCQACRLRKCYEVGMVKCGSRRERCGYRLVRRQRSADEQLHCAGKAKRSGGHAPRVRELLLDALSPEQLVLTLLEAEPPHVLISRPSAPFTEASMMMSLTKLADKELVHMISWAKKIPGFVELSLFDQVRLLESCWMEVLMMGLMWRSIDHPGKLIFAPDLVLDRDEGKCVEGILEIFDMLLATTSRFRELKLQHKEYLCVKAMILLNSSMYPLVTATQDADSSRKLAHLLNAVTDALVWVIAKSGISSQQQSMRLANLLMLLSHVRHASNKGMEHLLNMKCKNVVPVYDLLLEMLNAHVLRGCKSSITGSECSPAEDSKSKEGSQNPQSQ
SMILES,IC50 [1],IC50 ([2]; jurkat),IC50 [3],IC50 [4],IC50 [5],IC50 [6],IC50 [7],IC50 ([6]; read-out: IC50),IC50 ([2]; read-out: IC50),Ki ([2]; read-out: Ki)
Nn1nnc2ccccc21,Not Active,Not Active,Not Active,Not Active,Not Active,Not Active,Not Active,,,
CC[C@]1(O)CC[C@H]2[C@@H]3CCC4=CCCC[C@@H]4[C@H]3CC[C@@]21C,Not Active,Not Active,Not Active,Not Active,Not Active,Not Active,Not Active,,,
N[C@@H](Cc1ccc(F)cc1)C(=O)O,Not Active,Not Active,Not Active,Not Active,Not Active,Not Active,Not Active,,,
CCOC(=O)[C@H](CCc1ccccc1)N[C@@H](C)C(=O)N1Cc2ccccc2C[C@H]1C(=O)O,Not Active,Not Active,Not Active,Not Active,Not Active,Not Active,Not Active,,,
O=C(c1ccccc1Cl)N1CCC(Cc2ccccc2)CC1,Not Active,Not Active,Not Active,Not Active,Not Active,Not Active,Not Active,,,
CCOC(=O)[C@H](CCc1ccccc1)N[C@@H](C)C(=O)N1CCC[C@H]1C(=O)O,Not Active,Not Active,Not Active,Not Active,Not Active,Not Active,,,,
"Clc1cc2c(cc1Cl)Oc1cc(Cl)c(Cl)cc1O2 [2,3,7,8-TETRACHLORODIBENZO-P-DIOXIN]",Not Active,Not Active,Not Active,Not Active,Not Active,Not Active,Not Active,,,
C=C1/C(=C\C=C2/CCC[C@]3(C)[C@@H]([C@H](C)CCCC(C)C)CC[C@@H]23)C[C@@H](O)C[C@@H]1O [ALFACALCIDOL],Not Active,Not Active,Not Active,Not Active,Not Active,Not Active,Not Active,,,
CCCCCC[C@H]1C(=O)O[C@H](C)[C@H](NC(=O)c2cccc(NC=O)c2O)C(=O)O[C@@H](C)[C@@H]1OC(=O)CC(C)C [ANTIMYCIN A],Not Active,Not Active,Not Active,Not Active,Not Active,Not Active,Not Active,,,
C[C@@H]1CC[C@H]2[C@@H](C)C(=O)O[C@@H]3O[C@@]4(C)CC[C@@H]1[C@]32OO4 [ARTEMISININ],Not Active,Not Active,Not Active,Not Active,Not Active,Not Active,Not Active,,,
CO[C@H]1[C@@H](O)[C@H](N)[C@@H](O[C@H]2O[C@H]([C@H](C)N)CC[C@H]2N)[C@H](O)[C@@H]1N(C)C(=O)CN [ASTROMICIN],Not Active,Not Active,Not Active,Not Active,Not Active,Not Active,Not Active,,,
[N-]=[N+]=CC(=O)OC[C@H](N)C(=O)O [AZASERINE],Not Active,Not Active,Not Active,Not Active,Not Active,Not Active,,,,
CC[C@H]1OC(=O)[C@H](C)[C@@H](O[C@H]2C[C@@](C)(OC)[C@@H](O)[C@H](C)O2)[C@H](C)[C@@H](O[C@@H]2O[C@H](C)C[C@H](N(C)C)[C@H]2O)[C@](C)(O)C[C@@H](C)CN(C)[C@H](C)[C@@H](O)[C@]1(C)O [AZITHROMYCIN],Not Active,Not Active,Not Active,Not Active,Not Active,Not Active,Not Active,,,
CC(C)C[C@H]1C(=O)N2CCC[C@H]2[C@]2(O)O[C@](NC(=O)[C@@H]3C=C4c5cccc6[nH]c(Br)c(c56)C[C@H]4N(C)C3)(C(C)C)C(=O)N12 [BROMOCRIPTINE],Not Active,Not Active,Not Active,Not Active,Not Active,Not Active,,,,
CS(=O)(=O)OCCCCOS(C)(=O)=O [BUSULFAN],Not Active,Not Active,Not Active,Not Active,Not Active,,,5220 nM,,
Nc1nc(Cl)nc2c1ncn2[C@H]1C[C@H](O)[C@@H](CO)O1 [CLADRIBINE],Not Active,Not Active,Not Active,Not Active,Not Active,Not Active,,,,
CC[C@H]1OC(=O)[C@H](C)[C@@H](O[C@H]2C[C@@](C)(OC)[C@@H](O)[C@H](C)O2)[C@H](C)[C@@H](O[C@@H]2O[C@H](C)C[C@H](N(C)C)[C@H]2O)[C@](C)(OC)C[C@@H](C)C(=O)[C@H](C)[C@@H](O)[C@]1(C)O [CLARITHROMYCIN],Not Active,Not Active,Not Active,Not Active,Not Active,Not Active,,,,
CCN[C@@H](C)Cc1cccc(C(F)(F)F)c1 [DEXFENFLURAMINE],Not Active,,Not Active,Not Active,Not Active,Not Active,,,516 nM,217 nM
CN1C(=O)CN=C(c2ccccc2)c2cc(Cl)ccc21 [DIAZEPAM],Not Active,Not Active,Not Active,Not Active,Not Active,Not Active,,,,
C=C(CC)C(=O)c1ccc(OCC(=O)O)c(Cl)c1Cl [ETHACRYNIC ACID],Not Active,Not Active,Not Active,Not Active,Not Active,Not Active,,,,
OCCO [ETHYLENE GLYCOL],Not Active,Not Active,Not Active,Not Active,Not Active,Not Active,,,,
O=C(O)Cc1ccc(-c2ccccc2)cc1 [FELBINAC],Not Active,Not Active,Not Active,Not Active,Not Active,Not Active,,,,
N=C(N)N/N=C/c1c(Cl)cccc1Cl [GUANABENZ],Not Active,Not Active,Not Active,Not Active,Not Active,Not Active,,,,
C/C=C\c1ccc(O)c(OC)c1 [ISOEUGENOL],Not Active,Not Active,Not Active,Not Active,Not Active,Not Active,,,,
NC[C@H]1O[C@H](O[C@H]2[C@H](O)[C@@H](O[C@H]3O[C@H](CO)[C@@H](O)[C@H](N)[C@H]3O)[C@H](N)C[C@@H]2N)[C@H](O)[C@@H](O)[C@@H]1O [KANAMYCIN],Not Active,Not Active,Not Active,Not Active,Not Active,Not Active,,,,
CC(=O)O[C@]1(C(C)=O)CC[C@H]2[C@@H]3C=C(C)C4=CC(=O)CC[C@]4(C)[C@H]3CC[C@@]21C [MEGESTROL ACETATE],Not Active,Not Active,Not Active,Not Active,Not Active,Not Active,,,,
COc1ccccc1OCC(O)COC(N)=O (centres undefined) [METHOCARBAMOL],Not Active,Not Active,Not Active,Not Active,Not Active,Not Active,,,,
